Results on 13 molecules are retold here after patent US9877957B2, “Tetrahydroisoquinoline derivatives useful as inhibitors of diacylglyceride O-acyltransferase 2” (Merck Sharp & Dohme Corp., priority 2014, dated 2018).

This assay concerns the target hDGAT2 (Homo sapiens (Human), UniProt Q96PD7). As to the kind of experiment: DGAT2 Enzymatic Activity Assay (triolein formation, LC/MS/MS). In kind it is biochemical. The following applies: Sf-9 membrane prep expressing hDGAT2; 25 μM diolein, 10 μM oleoyl-CoA; room temperature; read-out: IC50 values for inhibition of DGAT2. The gist of the method:
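Untagged hDGAT2 in Sf-9 membranes (10 ng/μL) with 25 μM diolein and 10 μM oleoyl-CoA in 100 mM Tris·Cl pH 7.0, 20 mM MgCl2, 5% ethanol at room temperature. Triolein measured by LC/MS/MS against spiked internal standard; IC50 from 4-parameter sigmoidal fit of % inhibition.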

Chain of hDGAT2 (Q96PD7 whole entry): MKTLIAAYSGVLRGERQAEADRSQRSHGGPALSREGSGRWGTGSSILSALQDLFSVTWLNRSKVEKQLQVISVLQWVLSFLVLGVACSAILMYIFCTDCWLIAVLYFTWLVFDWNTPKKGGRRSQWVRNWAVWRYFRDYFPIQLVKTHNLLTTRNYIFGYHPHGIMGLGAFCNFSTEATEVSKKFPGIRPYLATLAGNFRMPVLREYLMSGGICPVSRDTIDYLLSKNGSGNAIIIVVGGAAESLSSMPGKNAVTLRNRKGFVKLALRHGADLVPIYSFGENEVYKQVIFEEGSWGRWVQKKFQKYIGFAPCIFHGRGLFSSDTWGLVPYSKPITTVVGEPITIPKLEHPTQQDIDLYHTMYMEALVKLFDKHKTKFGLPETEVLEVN

For orientation: IC50 means the point on the concentration scale where inhibition reaches its midpoint. For `CC(C)(C)NC(=O)N1CCc2c(-c3cccc(C(F)(F)F)c3)ccc(C(=O)Nc3nonc3-c3nc4ccccc4[nH]3)c2C1` [Example 53, N^8-(4-(1H-benzo[d]imidazol-2-yl)-1,2,5-oxadiazol-3-yl)-N^2-(tert-butyl)-5-(3-(trifluoromethyl)phenyl)-3,4-dihydroisoquinoline-2,8(1H)-dicarboxamide], the IC50 stood at 3340 nM.

On to `Cc1nc2ccccn2c1CNC(=O)c1ccc(-c2cccc(C(F)(F)F)c2)c2c1CN(C(=O)NC(C)(C)C)CC2` [Example 15, N^2-(tert-butyl)-N^8-((2-methylimidazo[1,2-a]pyridin-3-yl)methyl)-5-(3-(trifluoromethyl)phenyl)-3,4-dihydroisoquinoline-2,8(1H)-dicarboxamide], for which the IC50 worked out at 120 nM.

As to `CC(C)(C)NC(=O)N1CCc2c(-c3cccc(OC(F)(F)F)c3)ccc(C(=O)NCc3cc(-c4ccccn4)no3)c2C1` [Example 80, N^2-(tert-butyl)-N^8-((3-(pyridin-2-yl)isoxazol-5-yl)methyl)-5-(3-(trifluoromethoxy)phenyl)-3,4-dihydroisoquinoline-2,8(1H)-dicarboxamide], the 50% inhibitory concentration (IC50) is 524 nM.

Turning to `CC(C)(C)NC(=O)N1CCc2c(-c3cccc(OC(F)(F)F)c3)ccc(C(=O)NCc3cn4cccnc4n3)c2C1` [Example 55, N^2-(tert-butyl)-N^8-(imidazo[1,2-a]pyrimidin-2-ylmethyl)-5-(3-(trifluoromethoxy)phenyl)-3,4-dihydroisoquinoline-2,8(1H)-dicarboxamide], the IC50 was 2150 nM.

Take `Cc1nccn1CCNC(=O)c1ccc(-c2cccc(C(F)(F)F)c2)c2c1CN(C(=O)NC(C)(C)C)CC2` [Example 56, N^2-(tert-butyl)-N^8-(2-(2-methyl-1H-imidazol-1-yl)ethyl)-5-(3-(trifluoromethyl)phenyl)-3,4-dihydroisoquinoline-2,8(1H)-dicarboxamide]: the IC50 amounted to 7950 nM.

Turning to `COC(=O)c1cccc(-c2ccc(CNC(=O)C3CCN(c4ccc(C(F)(F)F)cc4)CC3)c3c2CCN(C(=O)NC(C)(C)C)C3)c1` [Example 1, methyl 3-(2-(tert-butylcarbamoyl)-8-((1-(4-(trifluoromethyl)phenyl)piperidine-4-carboxamido)methyl)-1,2,3,4-tetrahydroisoquinolin-5-yl)benzoate], the IC50 was 1.75 nM.

As for `CC(CNC(=O)c1ccc(-c2cccc(OC(F)(F)F)c2)c2c1CN(C(=O)NC(C)(C)C)CC2)c1cnco1` (stereo not shown) [Example 77, N^2-(tert-butyl)-N^8-(2-(oxazol-5-yl)propyl)-5-(3-(trifluoromethoxy)phenyl)-3,4-dihydroisoquinoline-2,8(1H)-dicarboxamide], the IC50 came to 867 nM.

As to `Cc1nonc1CNC(=O)c1ccc(-c2cccc(C(F)(F)F)c2)c2c1CN(C(=O)NC(C)(C)C)CC2` [Example 67, N^2-(tert-butyl)-N^8-((4-methyl-1,2,5-oxadiazol-3-yl)methyl)-5-(3-(trifluoromethyl)phenyl)-3,4-dihydroisoquinoline-2,8(1H)-dicarboxamide], the IC50 turned out to be 244 nM.

Take `CC(C)(C)NC(=O)N1CCc2c(-c3cccc(C(F)(F)F)c3)ccc(C(=O)NCCc3ccc(C(F)(F)F)cc3)c2C1` [Example 52, N^2-(tert-butyl)-N^8-(4-(trifluoromethyl)phenethyl)-5-(3-(trifluoromethyl)phenyl)-3,4-dihydroisoquinoline-2,8(1H)-dicarboxamide]: the 50% inhibitory concentration (IC50) worked out at 2420 nM.

For the molecule `CC(C)(C)NC(=O)N1CCc2c(-c3cccc(OC(F)(F)F)c3)ccc(C(=O)NCc3cccc4ccnn34)c2C1` [Example 79, N^2-(tert-butyl)-N^8-(pyrazolo[1,5-a]pyridin-7-ylmethyl)-5-(3-(trifluoromethoxy)phenyl)-3,4-dihydroisoquinoline-2,8(1H)-dicarboxamide], the IC50 amounted to 149 nM.

Turning to `CC(C)(C)NC(=O)N1CCc2c(-c3cccc(C(F)(F)F)c3)ccc(C(=O)NC3(c4ccccn4)CC3)c2C1` [Example 63, N^2-(tert-butyl)-N^8-(1-(pyridin-2-yl)cyclopropyl)-5-(3-(trifluoromethyl)phenyl)-3,4-dihydroisoquinoline-2,8(1H)-dicarboxamide], the IC50 came to 2060 nM.

Take `CC(C)(C)NC(=O)N1CCc2c(-c3cccc(OC(F)(F)F)c3)ccc(CNC(=O)c3cc(C(F)(F)F)n[nH]3)c2C1` [Example 2, N-(tert-butyl)-5-(3-(trifluoromethoxy)phenyl)-8-((3-(trifluoromethyl)-1H-pyrazole-5-carboxamido)methyl)-3,4-dihydroisoquinoline-2(1H)-carboxamide]: the IC50 is 104 nM.

As for `CC(CNC(=O)c1ccc(-c2cccc(C(F)(F)F)c2)c2c1CN(C(=O)NC(C)(C)C)CC2)c1ccno1` (stereo not shown) [Example 46, N^2-(tert-butyl)-N^8-(2-(isoxazol-5-yl)propyl)-5-(3-(trifluoromethyl)phenyl)-3,4-dihydroisoquinoline-2,8(1H)-dicarboxamide], the IC50 came to 1300 nM.
